Assay results: US7659404B2, “Broad spectrum 2-(substituted-amino)-benzothiazole sulfonamide HIV protease inhibitors” (Tibotec Pharmaceuticals Ltd., priority 2001, dated 2010)

Assays:
[1] = system: clinically isolated HIV strain R; assay: Antiviral spectrum, cellular assay (fold resistance), strain R; type: cell-based; conditions: FR=EC50(mutant strain)/EC50(HIV-1 strain LAI)
Description: (§1) HIV- or mock-infected MT4 cells were incubated for five days in the presence of various concentrations of the inhibitor. At the end of the incubation period, all HIV-infected cells have been killed by the replicating virus in the control cultures in the absence of any inhibitor. Cell viability is measured by measuring the concentration of MTT, a yellow, water soluble tetrazolium dye that is converted to a purple, water insoluble formazan in the mitochondria of living cells only. Upon solubilization of the resulting formazan crystals with isopropanol, the absorbance of the solution is monitored at 540 nm. The values correlate directly to the number of living cells remaining in the culture at the completion of the five day incubation. The inhibitory activity of the compound was monitored on the virus-infected cells and was expressed as EC50 and EC90. These values represent the amount of the compound required to protect 50% and 90%, respectively, of the cells from the cytopathogenic effect of the virus. The toxicity of the compound was measured on the mock-infected cells and was expressed as CC50, which represents the concentration of compound required to inhibit the growth of the cells by 50%. The selectivity index (SI) (ratio CC50/EC50) is an indication of the selectivity of the anti-HIV activity of the inhibitor.
(§2) Because of the increasing emergence of drug resistant HIV strains, the present compounds were tested for their potency against clinically isolated HIV strains harboring several mutations. These mutations are associated with resistance to protease inhibitors and result in viruses that show various degrees of phenotypic cross-resistance to the currently commercially available drugs such as for instance saquinavir, ritonavir, nelfinavir, indinavir and amprenavir.
(§3) As a measure of the broad spectrum activity of the present compounds, the fold resistance (FR) defined as FR=EC50(mutant strain)/EC50(HIV-1 strain LAI).

[2] = system: clinically isolated HIV strain H; type: cell-based; conditions: FR=EC50(mutant strain)/EC50(HIV-1 strain LAI)
Procedure, shortened: (§4)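 MT4 cells, HIV- or mock-infected, were cultured five days with a range of inhibitor concentrations, and viability was then read by MTT conversion to formazan (isopropanol-solubilized, A540 nm). EC50/EC90 are the concentrations protecting 50%/90% of infected cells from viral cytopathic effect. Fold resistance = EC50(mutant strain)/EC50(HIV-1 LAI).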

[3] = system: clinically isolated HIV strain I; type: cell-based; conditions: FR=EC50(mutant strain)/EC50(HIV-1 strain LAI)
Procedure, shortened: as §4

[4] = system: clinically isolated HIV strain J; type: cell-based; conditions: FR=EC50(mutant strain)/EC50(HIV-1 strain LAI)
Procedure, shortened: as §4

[5] = system: clinically isolated HIV strain T; type: cell-based; conditions: FR=EC50(mutant strain)/EC50(HIV-1 strain LAI)
Procedure, shortened: as §4

[6] = system: clinically isolated HIV strain O; type: cell-based; conditions: FR=EC50(mutant strain)/EC50(HIV-1 strain LAI)
Procedure, shortened: as §4

[7] = system: clinically isolated HIV strain N; assay: Antiviral spectrum, cellular assay (fold resistance), strain N; type: cell-based; conditions: FR=EC50(mutant strain)/EC50(HIV-1 strain LAI)
Description: as §1, §2, §3

[8] = system: clinically isolated HIV strain E; assay: Antiviral spectrum, cellular assay (fold resistance), strain E; type: cell-based; conditions: FR=EC50(mutant strain)/EC50(HIV-1 strain LAI)
Description: as §1, §2, §3

[9] = system: clinically isolated HIV strain K; assay: Antiviral spectrum, cellular assay (fold resistance), strain K; type: cell-based; conditions: FR=EC50(mutant strain)/EC50(HIV-1 strain LAI)
Description: as §1, §2, §3

[10] = system: clinically isolated HIV strain A; assay: Antiviral spectrum, cellular assay (fold resistance), strain A; type: cell-based; conditions: FR=EC50(mutant strain)/EC50(HIV-1 strain LAI)
Description: as §1, §2, §3

[11] = system: virus strain S (R13080); assay: microbe, parasite or virus in culture; type: cell-based, HIV; conditions: FR=EC50(mutant strain)/EC50(HIV-1 strain LAI); strain S
Procedure, shortened: as §4

[12] = system: virus strain F (R13025); assay: microbe, parasite or virus in culture; type: cell-based, HIV; conditions: FR=EC50(mutant strain)/EC50(HIV-1 strain LAI); strain F
Procedure, shortened: as §4

[13] = system: clinically isolated HIV strain L; assay: Antiviral spectrum, cellular assay (fold resistance), strain L; type: cell-based; conditions: FR=EC50(mutant strain)/EC50(HIV-1 strain LAI)
Description: as §1, §2, §3

[14] = system: clinically isolated HIV strain G; assay: Antiviral spectrum, cellular assay (fold resistance), strain G; type: cell-based; conditions: FR=EC50(mutant strain)/EC50(HIV-1 strain LAI)
Description: as §1, §2, §3

[15] = system: clinically isolated HIV strain M; assay: Antiviral spectrum, cellular assay (fold resistance), strain M; type: cell-based; conditions: FR=EC50(mutant strain)/EC50(HIV-1 strain LAI)
Description: as §1, §2, §3

[16] = system: clinically isolated HIV strain C; assay: Antiviral spectrum, cellular assay (fold resistance), strain C; type: cell-based; conditions: FR=EC50(mutant strain)/EC50(HIV-1 strain LAI)
Description: as §1, §2, §3

[17] = system: clinically isolated HIV strain B; assay: Antiviral spectrum, cellular assay (fold resistance), strain B; type: cell-based; conditions: FR=EC50(mutant strain)/EC50(HIV-1 strain LAI)
Description: as §1, §2, §3

[18] = system: clinically isolated HIV strain P; assay: Antiviral spectrum, cellular assay (fold resistance), strain P; type: cell-based; conditions: FR=EC50(mutant strain)/EC50(HIV-1 strain LAI)
Description: as §1, §2, §3

[19] = system: clinically isolated HIV strain Q; assay: Antiviral spectrum, cellular assay (fold resistance), strain Q; type: cell-based; conditions: FR=EC50(mutant strain)/EC50(HIV-1 strain LAI)
Description: as §1, §2, §3

[20] = system: clinically isolated HIV strain D; assay: Antiviral spectrum, cellular assay (fold resistance), strain D; type: cell-based; conditions: FR=EC50(mutant strain)/EC50(HIV-1 strain LAI)
Description: as §1, §2, §3

SMILES	fold resistance (FR), strain R [1]	fold resistance (FR), strain H [2]	fold resistance (FR), strain I [3]	fold resistance (FR), strain J [4]	fold resistance (FR), strain T [5]	fold resistance (FR), strain O [6]	fold resistance (FR), strain N [7]	fold resistance (FR), strain E [8]	fold resistance (FR), strain K [9]	fold resistance (FR), strain A [10]	fold resistance (FR), strain S [11]	fold resistance (FR), strain F [12]	fold resistance (FR), strain L [13]	fold resistance (FR), strain G [14]	fold resistance (FR), strain M [15]	fold resistance (FR), strain C [16]	fold resistance (FR), strain B [17]	fold resistance (FR), strain P [18]	fold resistance (FR), strain Q [19]	fold resistance (FR), strain D [20]
CC(C)CN(CC(O)C(Cc1ccccc1)NC(=O)OC1COC2OCCC12)S(=O)(=O)c1ccc2nc(NC(=O)CN3CCCC3)sc2c1 (mixture of isomers) [Compound 7]	0.4	0.5	0.5	0.4	12.4	0.4	0.5	0.3	0.3	0.2	2.0	0.5	0.1	0.2	0.1	0.5	0.3	0.1	0.4	0.5
CC(C)CN(CC(O)C(Cc1ccccc1)NC(=O)OC1COC2OCCC12)S(=O)(=O)c1ccc2nc(NC(=O)CN3CCOCC3)sc2c1 (mixture of isomers) [Compound 10]	0.3	0.4	0.4	0.3	4.9	0.4	0.0	0.4	0.3	0.4	0.5	0.5	0.2	0.5	0.3	0.6	0.4	0.3	0.3	0.5
CC(C)CN(C[C@@H](O)[C@H](Cc1ccccc1)NC(=O)O[C@H]1CO[C@H]2OCC[C@H]21)S(=O)(=O)c1ccc2nc(NC(=O)CN3CCCC3)sc2c1.O=C(O)/C=C/C(=O)O [Compound 13]	0.2	0.6	0.3	0.2	5.8	0.3	1.0	0.2	0.2	0.2	1.0	0.6	0.1	0.2	0.2	0.2	0.2	0.2	0.4	0.2
